{"source": "patent US20250262241A1", "about": "“METHODS TO IMPROVE STABILITY OF VIRUS TRANSDUCTION OF y8 T CELLS AND APPLICATIONS THEREOF” (UNICET BIOTECH CO. LLC., priority 2021, published 2025)", "key": {"[1]": {"target": "T1, IKKε (Homo sapiens, UniProt Q14164)", "T1 sequence (Q14164 1-716)": "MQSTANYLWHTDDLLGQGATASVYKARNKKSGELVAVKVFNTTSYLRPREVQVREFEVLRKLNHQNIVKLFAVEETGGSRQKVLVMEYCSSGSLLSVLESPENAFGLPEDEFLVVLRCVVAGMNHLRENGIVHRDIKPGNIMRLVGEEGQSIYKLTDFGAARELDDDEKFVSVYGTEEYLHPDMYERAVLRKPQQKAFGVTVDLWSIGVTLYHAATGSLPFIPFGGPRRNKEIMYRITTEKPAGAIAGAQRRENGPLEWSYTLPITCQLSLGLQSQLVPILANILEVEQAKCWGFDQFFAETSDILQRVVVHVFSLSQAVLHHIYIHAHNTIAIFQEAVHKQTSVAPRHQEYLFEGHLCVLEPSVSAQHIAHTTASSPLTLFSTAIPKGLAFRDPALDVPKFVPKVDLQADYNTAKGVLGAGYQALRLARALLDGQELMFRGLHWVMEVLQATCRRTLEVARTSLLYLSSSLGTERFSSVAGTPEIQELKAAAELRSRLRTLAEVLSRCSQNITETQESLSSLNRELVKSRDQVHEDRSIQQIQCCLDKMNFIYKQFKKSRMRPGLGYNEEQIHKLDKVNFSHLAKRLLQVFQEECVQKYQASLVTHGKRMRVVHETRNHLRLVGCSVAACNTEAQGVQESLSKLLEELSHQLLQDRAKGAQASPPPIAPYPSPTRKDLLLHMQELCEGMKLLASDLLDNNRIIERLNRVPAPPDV", "settings": "cited from earlier work"}, "[2]": {"test_system": "γδ T cell products cultured from PBMC", "assay_type": "cell-based, human", "settings": "0.6 μM BX795, after 12 Days in vitro culture", "method": "Wash the cells once with PBS and then staining the cells with antibodies diluted in FACS buffer (PBS+1% FBS+2.5 mM EDTA) at 4° C. for 30 min. The common volume of incubated buffer was 50 μL for 2×10^cells.\n(§1) After incubation, washed the cells with FACS buffer two times and then resuspended the cells in 200 ul FACS buffer and calculated the data by FACSCalibur (BD Biosciences). The antibodies used for γδ2 T cells were: APC anti-human CD3 (Biolegend, 300412), BV421 anti-human TCR Vδ2 (Biolegend, 331428).\nThe calculated cell types included γδ2 T, γδ2 CD56+ T, γδ1 T, αβT, NKT, T helper, cytotoxic T, B and NK cells."}, "[3]": {"test_system": "γδ2 T cells", "test": "Lentivirus (GFP) transduction of γδ2 T cells with or without BX795", "assay_type": "cell-based, human", "method": "VSV-G pseudotyped lentiviral vectors were applied in this method. 1×10^7 293T cells were plated into a poly-D-lysine coated 100 mm dish. Next day the cells were transfected with 6 μg of pCDH-EF1-MCS-T2A-copGFP plasmid (Addgene, Plasmid #72263) or pCDH-EF1-CAR-T2A-copGFP plasmid modified from pCDH-EF1-MCS-T2A-copGFP, 4 μg of pspAx2 (Addgene, Plasmid #12260), 2 μg of pCMV-VSV-G (Addgene, Plasmid #8454) using 30 ug PEI transfection regents. After 8 hours of transfection, the cell culture medium was changed. The supernatant were collected 48 hours and 72 hours later. Concentrated the virus with Lenti-X™ Concentrator (Takara) and monitored the virus titers by transduction of 293T cells and stored the concentrated virus in −80° C. until further use.\nFor lentivirus transduction, 1×10^CFU lentivirus diluted in 200 ul PBS were added in a 24-well plate which were pre-coated with RetroNectin reagent (Takara) and centrifugated by 2,000 g for 2 hours at 32° C. After centrifugation, removed the supernatant and washed the plate with PBS three times slightly.\nThe plates were incubated at 37° C., 5% CO2.\nas §1"}}, "note": "“And” between values parts separate entries of the source, which are not always exact repeats. Equal values may be shown once."}
{"substance": "BX795", "values": [{"measurement": "IC50", "setting": "[1]", "result": 41, "unit": "nM"}, {"measurement": "B cell (CO3−TCRVδ2−CD19+), cell percentage of total lymphocytes", "setting": "[2]", "result": "0.27% and 0.32%"}, {"measurement": "NK cell (CD3−TCRVδ2−CD56+), cell percentage of total lymphocytes", "setting": "[2]", "result": "2.66% and 2.20%"}, {"measurement": "NKT cell (CD3+TCRVδ2−TCRVδ1−TCRαβ+CD56+), cell percentage of total lymphocytes", "setting": "[2]", "result": "0.34% and 0.31%"}, {"measurement": "T helper cell (CD3+TCRVδ2−TCRVδ1− TCRαβ+CD56−CD8−CD4+), cell percentage of total lymphocytes", "setting": "[2]", "result": "5.26% and 5.40%"}, {"measurement": "cell types of the final γδ T cell products vs control group", "setting": "[2]", "result": "comparable cell types with the control group"}, {"measurement": "αβ T cell (CD3+TCRVδ2−TCRVδ1−TCRαβ+), cell percentage of total lymphocytes", "setting": "[2]", "result": "7.22% and 7.20%"}, {"measurement": "γδ2 CD56+ T cell (CD3+TCRVδ2+ CD56+), cell percentage of total lymphocytes", "setting": "[2]", "result": "1.89% and 1.69%"}, {"measurement": "γδ2 T cell (CD3+TCRVδ2+), cell percentage of total lymphocytes", "setting": "[2]", "result": "85.93% and 86.52%"}, {"measurement": "total positive transduced γδ2 T cells", "setting": "[3]; 0.2 μM or 0.6 μM BX795", "result": "greatly increased"}, {"measurement": "final transduction rate, 2 μM compared with 0.6 μM BX795", "setting": "[3]; 2 μM BX795", "result": "not significant"}, {"measurement": "cell number of transduced γδ2 T cells", "setting": "[3]; 2 μM or 6 μM BX795, vs control group", "result": "lower than the control group"}]}
